Experimental data taken from patent US10336768B2, “Pyrimidine compounds and methods using the same” (Yuma Therapeutics, Inc., priority 2014, dated 2019).
In brackets after ≈: the same amount, converted by molar mass. Several values for one entry are separate records, joined by “and”; a condition that tells them apart may be missing. Equal entries are not always repeated. Where two headings read alike, the source gives them in different places. Marks after values point to notes of the source that are not given here.

Key:
[1] = test system: T1, His-tagged-Hsp90; assay: Hsp90 biochemical assay (AlphaLISA); type: binding
T1 construct: fused on or other part: His tag (captured on Ni2+-coated beads)
Method: This assay employs biotinylated geldanamycin, His-tagged-Hsp90, and Ni^+2 coated beads. This assay is homogenous and miniaturized to 384-well plates. Measurement of binding activity was performed on an Envision reader. […] This assay is the primary assay for evaluating compounds of the invention.

[2] = Mouse liver microsomal stability; type: in vitro ADME; conditions: mouse liver microsomes; read-out: microsomal stability T1/2
Method: Metabolic stability of the compounds of the invention was assessed by monitoring their degradation in mouse liver microsomes.

[3] = Solubility in pH 7.4 buffer; type: physicochemical; conditions: pH 7.4, aqueous buffer, pH of 7.4
Method: Compound solubility was determined in pH 7.4 buffer. Aqueous solubility of greater than or equal to about 0.5 μM (e.g., greater than or equal to about 1 μM, greater than or equal to about 2 μM, greater than or equal to about 5 μM, greater than or equal to about 10 μM, greater than or equal to about 20 μM, or greater than or equal to about 30 μM) may indicate a compound having acceptable solubility for medical use, e.g., for treatment of a neurodegenerative disorder.

[4] = test system: P-glycoprotein (P-gp, MDR1); assay: MDR1-MDCK permeability assay; type: in vitro ADME; conditions: dog, apical to basal
From the text: Compounds may be assessed in MDR1-MDCK permeability assay or Caco-2 permeability assay to determine their permeability. Apical (A) to basal (B) permeability >3×10^−6 cm/sec and B→A/A→B asymmetry <3 for a compound are considered acceptable predictors of brain penetration, and compounds having such properties are unlikely to be P-glycoprotein (P-gp) substrates. Compound 20 has shown excellent permeability in MDR1-MDCK assay (A-B=28×10^−6 cm/s) with low asymmetry (B→A/A→B asymmetry=0.9).

[5] = Mouse pharmacokinetics, plasma levels (LC-MS/MS); type: in vivo; conditions: for AUC(0-t): read-out: AUC(0-8 h); for half-life: read-out: Half life (t1/2) (converted)
Method: (§1) Plasma and brain samples were taken pre-dose and at post dose time points of pre-dose, 15 and 30 minutes, 1, 2, and 8 hours. The pre-dose group was represented by 5 animals, whereas the post-dose groups were represented by 3 animals.
(§2) Bioanalysis of mouse plasma samples for compound 20 was conducted by protein precipitation and LC-MS/MS with compound 22 as the internal standard. The method was based on a ‘generic assay’ and some method development was conducted to tailor that assay to the particular compound and internal standard. The eventual non-GLP assay was first tested by analyzing a bioanalytical run with spiked mouse plasma samples. The qualification run passed by the run acceptance criteria (see below). Bioanalysis was then conducted of plasma sample extracts and of brain sample homogenate extracts, using a calibration and quality control samples spiked in mouse plasma. The assay is described below.
Compound 20 and compound 22 were extracted from the mouse plasma matrix by protein precipitation. To 20.0 μL of sample was added 10.0 μL of internal standard working solution (1000 ng/mL in MeOH) and 200 μL of MeCN. The mixture was vortexed (5 sec) and centrifuged (14000 rpm, 5 min). The supernatant was then recovered and evaporated to dryness. The residue was redissolved in 100 μL of redissolving solution (80:20 v:v of mobile phases A:B). For analysis, 20.0 μL was injected in to the LC-MS/MS system.
All chromatography was done with a type 1100 liquid chromatograph (Agilent), equipped with an auto-injector. The analytical column was an Xbridge C18 3.5 μm 2.1×50 mm (Waters), employed at 50° C. The mobile phase was a gradient, composed of solvent A:1 g/L ammonium acetate in Milli-Q water, and solvent B: MeCN.
All experiments were done on an API 3000 triple quadrupole instrument (AB Sciex), operated in positive turbo-ionspray mode (‘TIS+’). The instrument parameters had been optimized during method development.
[…] Two sets of calibration samples were used, one set placed before and the other placed after the study samples. In addition, QC samples at 5 levels (two samples at each level) were included in the run, as performance indicators and for run acceptance.
(§3) Evaluation of pharmacokinetic parameters was conducted by calculation from the mean concentration (n=5 pre-dose, n=3 post-dose) at each time point.

[6] = Mouse pharmacokinetics, brain tissue levels (LC-MS/MS); type: in vivo; conditions: for concentration at 0.5 h: 0.50 h; for half-life: read-out: Half life (t1/2) (converted)
Method: as §1, §2, §3

[7] = test system: Hsp70; assay: Hsp90 cell based functional assay (Western blot for Hsp70, Hsp90)
Method: Cells were treated with compounds of the invention for 24 h and then lysed in a buffer containing NP-40, orthovanadate, and protease inhibitors. Western blots were performed with antibodies specific to Hsp70, Hsp90, or actin (as control).

[8] = mouse, plasma, Table 11, footnote: excluding IRN12 result
[9] = mouse, plasma, Table 12, footnote: including IRN12 result
[10] = mouse brain tissue, Table 14, footnote: excluding IRN 12 result
[11] = mouse brain tissue, Table 15, footnote: including IRN 12 result
[12] = mouse, brain homogenate, mouse brain homogenate, read-out: Mean Group Concentration, Homogenate
[13] = mouse, brain, mouse brain tissue, read-out: Mean Group Concentration, Tissue
[14] = mouse, brain, mouse brain tissue, Table 14, footnote: excluding IRN 12 result
[15] = mouse, brain, mouse brain tissue, Table 15, footnote: including IRN 12 result

## Nc1nc(-c2c(Cl)cc(Cl)c3c2CCO3)c2[nH]ccc2n1 [compound 20, 4-(5,7-Dichloro-2,3-dihydrobenzofuran-4-yl)-5H-pyrrolo[3,2-d]pyrimidin-2-amine]
[1]; AlphaLISA, FIG. 5A, read-out: Hsp90 inhibitory activity IC50
  IC50: 0.74 ± 0.1 µM
[1]; IC50 class, AlphaLISA (primary assay), read-out: Hsp90 inhibitory activity
  IC50: < 1 µM
[2]
  half-life: 26 min
[3]
  solubility: 30 µM (≈ 9.64 µg/mL)
[4]
  Papp A→B: 280 nm/s
[5]; 0.25 h
  Mean Group Concentration, plasma: ^a Excluding IRN 12 result: 14950 ng/mL
[5]; 15 minutes post dose (B_0.25), values above 8000 ng/mL out of range, indicative
  Plasma concentration, individual animals: 17,900 ^b ng/mL and 12,000 ^b ng/mL
[5]; 30 minutes post dose (C_0.5), out of range (>8000 ng/mL), indicative
  Plasma concentration, individual animals: 11,500 ^b ng/mL and 10,500 ^b ng/mL and 11,100 ^b ng/mL
[5]; 1 hour post dose (D_1)
  Plasma concentration, individual animals: 7,130 ng/mL and 7,470 ng/mL
[5]; 2 hours post dose (E_2)
  Plasma concentration, individual animals: 4,180 ng/mL and 4,440 ng/mL
[5]; 8 hours post dose (F_8)
  Plasma concentration, individual animals: 99.3 ng/mL and 22.5 ng/mL and 21.9 ng/mL
[5]; Table 11, footnote: excluding IRN12 result
  Kelimination: 0.725 per hour (h^−1)
[5]; Table 12, footnote: including IRN12 result
  Kelimination: 0.730 per hour (h^−1)
[5]; mouse, plasma, 0.25 h, n=3 incl. IRN 12, read-out: Mean Group Concentration, plasma
  concentration at 0.25 h: 9.97 µg/mL
[5]; mouse, plasma, 15 minutes post dose (B_0.25), values above 8000 ng/mL out of range, indicative, read-out: Plasma concentration, individual animals
  concentration at 15 min: 0.00266 µg/mL
[5]; mouse, plasma, 0.50 h, read-out: Mean Group Concentration, plasma
  concentration at 0.5 h: 11 µg/mL
[5]; mouse, plasma, 1.00 h, read-out: Mean Group Concentration, plasma
  concentration at 1 h: 7.16 µg/mL
[5]; mouse, plasma, 1 hour post dose (D_1), read-out: Plasma concentration, individual animals
  concentration at 1 h: 6.89 µg/mL
[5]; mouse, plasma, 2.00 h, read-out: Mean Group Concentration, plasma
  concentration at 2 h: 4.26 µg/mL
[5]; mouse, plasma, 2 hours post dose (E_2), read-out: Plasma concentration, individual animals
  concentration at 2 h: 4.15 µg/mL
[5]; mouse, plasma, 8.00 h, read-out: Mean Group Concentration, plasma
  concentration at 8 h: 0.0479 µg/mL
[5]; [8]
  AUC(0-inf): 27.1 µg·h/mL
  Cmax: 11 µg/mL
  Tmax: 30 min
  AUC(0-t): 27 µg·h/mL
  half-life: 57.6 min
[5]; [9]
  AUC(0-inf): 28.3 µg·h/mL
  Cmax: 15 µg/mL
  Tmax: 15 min
  AUC(0-t): 28.3 µg·h/mL
  half-life: 57 min
[6]; mouse brain homogenate, 15 minutes post dose (B_0.25), 0.00 = below LLOQ 0.988 ng/mL
  Homogenate concentration, individual animals: 0.00 ^a ng/mL and 1250 ng/mL
[6]; mouse brain homogenate, 30 minutes post dose (C_0.5)
  Homogenate concentration, individual animals: 844 ng/mL and 1200 ng/mL
[6]; mouse brain homogenate, 1 hour post dose (D_1)
  Homogenate concentration, individual animals: 859 ng/mL and 789 ng/mL
[6]; mouse brain homogenate, 2 hours post dose (E_2)
  Homogenate concentration, individual animals: 385 ng/mL and 294 ng/mL
[6]; mouse brain homogenate, 8 hours post dose (F_8)
  Homogenate concentration, individual animals: 7.53 ng/mL and 1.83 ng/mL and 1.53 ng/mL
[6]; mouse brain tissue, 0.25 h, excluding IRN 12 result
  Mean Group Concentration, Tissue: ^a excluding IRN 12 result: 15772 ng/g.
[6]; mouse brain tissue, 0.25 h, incl. IRN 12
  Mean Group Concentration, Tissue: 10515 ^a ng/g
[6]; [10]
  AUC(0-inf): 22.9 µg·h/mL
  Kelimination: 0.769 per hour (h^−1)
[6]; mouse brain tissue, Table 14, footnote: excluding IRN 12 result, read-out: AUC(0-8 h)
  AUC(0-t): 22.9 µg·h/mL
[6]; mouse brain tissue, Table 14, footnote: excluding IRN 12 result, read-out: Tmax
  Tmax: 15 min
[6]; [11]
  Kelimination: 0.789 per hour (h^−1)
  Tmax: 15 min (h)
[6]; mouse brain, 15 minutes post dose (B_0.25), 0.00 = below LLOQ
  Brain concentration, individual animals: 0.00 ^a ng/g and 10870 ng/g
[6]; mouse brain, 30 minutes post dose (C_0.5)
  Brain concentration, individual animals: 7371 ng/g and 10480 ng/g
[6]; mouse brain, 1 hour post dose (D_1)
  Brain concentration, individual animals: 7486 ng/g and 6846 ng/g
[6]; mouse brain, 2 hours post dose (E_2)
  Brain concentration, individual animals: 3341 ng/g and 2518 ng/g
[6]; mouse brain, 8 hours post dose (F_8)
  Brain concentration, individual animals: 63.0 ng/g and 15.0 ng/g and 12.9 ng/g
[6]; mouse, brain homogenate, mouse brain homogenate, 0.25 h, incl. IRN 12, read-out: Mean Group Concentration, Homogenate
  concentration at 0.25 h: 1.18 µg/mL
[6]; mouse, brain homogenate, mouse brain homogenate, 15 minutes post dose (B_0.25), 0.00 = below LLOQ 0.988 ng/mL, read-out: Homogenate concentration, individual animals
  concentration at 15 min: 2.3 µg/mL
[6]; [12]
  concentration at 0.5 h: 1.15 µg/mL
  concentration at 8 h: 0.00363 µg/mL
[6]; mouse, brain homogenate, mouse brain homogenate, 30 minutes post dose (C_0.5), read-out: Homogenate concentration, individual animals
  concentration at 30 min: 1.4 µg/mL
[6]; mouse, brain homogenate, mouse brain homogenate, 1.00 h, read-out: Mean Group Concentration, Homogenate
  concentration at 1 h: 0.845 µg/mL
[6]; mouse, brain homogenate, mouse brain homogenate, 1 hour post dose (D_1), read-out: Homogenate concentration, individual animals
  concentration at 1 h: 0.888 µg/mL
[6]; mouse, brain homogenate, mouse brain homogenate, 2.00 h, read-out: Mean Group Concentration, Homogenate
  concentration at 2 h: 0.363 µg/mL
[6]; mouse, brain homogenate, mouse brain homogenate, 2 hours post dose (E_2), read-out: Homogenate concentration, individual animals
  concentration at 2 h: 0.41 µg/mL
[6]; [13]
  concentration at 0.5 h: 9820 ng/g
  concentration at 8 h: 30 ng/g
[6]; mouse, brain, mouse brain tissue, 1.00 h, read-out: Mean Group Concentration, Tissue
  concentration at 1 h: 7280 ng/g
[6]; mouse, brain, mouse brain tissue, 2.00 h, read-out: Mean Group Concentration, Tissue
  concentration at 2 h: 3150 ng/g
[6]; [14]
  Cmax: 10500 ng/g
  half-life: 54 min
[6]; [15]
  Cmax: 15800 ng/g
  half-life: 52.8 min
[6]; mouse, brain, mouse brain, 15 minutes post dose (B_0.25), 0.00 = below LLOQ, read-out: Brain concentration, individual animals
  concentration at 15 min: 20700 ng/g
[6]; mouse, brain, mouse brain, 30 minutes post dose (C_0.5), read-out: Brain concentration, individual animals
  concentration at 30 min: 11600 ng/g
[6]; mouse, brain, mouse brain, 1 hour post dose (D_1), read-out: Brain concentration, individual animals
  concentration at 1 h: 7490 ng/g
[6]; mouse, brain, mouse brain, 2 hours post dose (E_2), read-out: Brain concentration, individual animals
  concentration at 2 h: 3600 ng/g
[7]; Western blot, FIG. 5B
  expression of Hsp70: increase in the expression of Hsp70
[7]; Western blot, FIG. 5B, relative to variation in concentration
  expression of Hsp90: expression of Hsp90 remains unchanged
[7]; read-out: Hsp 70 agonist activity
  EC50: > 10 µM
